Data taken from patent publication US9200005B2, “Inhibitor compounds of phosphodiesterase type 10A” (AbbVie Deutschland GmbH & Co. KG, priority 2013, dated 2015).

Experiments:
[1] = Determination of the microsomal half-life / microsomal clearance, rat liver microsomes; type: in vitro ADME; details: 0.5 μM test substance, 0.25 mg of microsomal protein/mL, NADPH, 37° C.
Outline: (§1)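 Compound (0.5 μM) was preincubated 5 min at 37 °C with rat or human liver microsomes (0.25 mg protein/mL) in 0.05 M phosphate pH 7.4, and NADPH (1 mg/mL) was then added. Samples taken at 0-30 min and quenched with acetonitrile were analysed by MS/MS. T½ was derived assuming first-order decay, and clearance […] was calculated from T½ and protein content.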

PDE10A = PDE10A (UniProt Q9Y233); assay: Measurement of PDE activity (HTRF cAMP kit, recombinant PDE10A); type: biochemical, human, rat and mouse; details: substrate 20 nM, 60 minutes at 29° C.
[2] = Determination of the microsomal half-life / microsomal clearance, human liver microsomes; type: in vitro ADME; details: 0.5 μM test substance, 0.25 mg of microsomal protein/mL, NADPH, 37° C.
Outline: as §1

SMILES | Rat mCl [1] | IC50 (PDE10A) [µM] | Human mCl [2]
CC(C)Oc1cccc(COc2nn(C)c(=O)c3c(-c4ccncc4)csc23)c1 [Example 73, 5-methyl-7-{[3-(propan-2-yloxy)benzyl]oxy}-3-(pyridin-4-yl)thieno[2,3-d]pyridazin-4(5H)-one] | ++ (++: <100 μl min^−1 mg^−1) | 0.2 to 0.5 | ++ (++: <100 μl min^−1 mg^−1)
Cn1nc(Oc2ccccc2)c2scc(-c3ccncc3)c2c1=O [Example 81, 5-methyl-7-phenoxy-3-(pyridin-4-yl)thieno[2,3-d]pyridazin-4(5H)-one] | ++ (++: <100 μl min^−1 mg^−1) | 0.2 to 0.5 | ++ (++: <100 μl min^−1 mg^−1)
Cn1nc(Oc2cccnc2)c2scc(-c3ccncc3)c2c1=O [Example 82, 5-methyl-3-(pyridin-4-yl)-7-(pyridin-3-yloxy)thieno[2,3-d]pyridazin-4(5H)-one] | ++ (++: <100 μl min^−1 mg^−1) | 0.2 to 0.5 | ++ (++: <100 μl min^−1 mg^−1)
COc1ccccc1Oc1nn(C)c(=O)c2c(-c3ccncc3)csc12.O=C(O)C(F)(F)F [Example 84, 7-(2-methoxyphenoxy)-5-methyl-3-(pyridin-4-yl)thieno[2,3-d]pyridazin-4(5H)-one trifluoroacetate] | ∘ (∘ not avialable or >220 μl min^−1 mg^−1) | 0.1 to 0.2 | ++ (++: <100 μl min^−1 mg^−1)
COc1ccc(Oc2nn(C)c(=O)c3c(-c4ccncc4)csc23)cc1 [Example 86, 7-(4-methoxyphenoxy)-5-methyl-3-(pyridin-4-yl)thieno[2,3-d]pyridazin-4(5H)-one] | + (+: 100-220 μl min^−1 mg^−1) | 0.2 to 0.5 | ++ (++: <100 μl min^−1 mg^−1)
Cn1nc(Oc2ccc3c(c2)OCO3)c2scc(-c3ccncc3)c2c1=O [Example 89, 7-(1,3-benzodioxol-5-yloxy)-5-methyl-3-(pyridin-4-yl)thieno[2,3-d]pyridazin-4(5H)-one] | + (+: 100-220 μl min^−1 mg^−1) | 0.2 to 0.5 | ++ (++: <100 μl min^−1 mg^−1)
Cn1nc(-c2cccc(C#N)c2)c2scc(-c3ccncc3)c2c1=O [Example 94, 3-[5-methyl-4-oxo-3-(pyridin-4-yl)-4,5-dihydrothieno[2,3-d]pyridazin-7-yl]benzonitrile] | ++ (++: <100 μl min^−1 mg^−1) | 0.1 to 0.2 | ++ (++: <100 μl min^−1 mg^−1)
COc1cccc(-c2nn(C)c(=O)c3c(-c4ccncc4)csc23)c1 [Example 123, 7-(3-methoxyphenyl)-5-methyl-3-(pyridin-4-yl)thieno[2,3-d]pyridazin-4(5H)-one] | ∘ (∘ not avialable or >220 μl min^−1 mg^−1) | 0.1 to 0.2 | + (+: 100-220 μl min^−1 mg^−1)
Cn1nc(-c2ccc3c(c2)OCO3)c2scc(-c3ccncc3)c2c1=O [Example 124, 7-(1,3-benzodioxol-5-yl)-5-methyl-3-(pyridin-4-yl)thieno[2,3-d]pyridazin-4(5H)-one] | + (+: 100-220 μl min^−1 mg^−1) | 0.2 to 0.5 | + (+: 100-220 μl min^−1 mg^−1)
Cc1ncc(-c2csc3c(-c4ccncc4)nn(CC(F)(F)F)c(=O)c23)cn1 [Example 128, 3-(2-methylpyrimidin-5-yl)-7-(pyridin-4-yl)-5-(2,2,2-trifluoroethyl)thieno[2,3-d]pyridazin-4(5H)-one] | ++ (++: <100 μl min^−1 mg^−1) | 0.2 to 0.5 | ++ (++: <100 μl min^−1 mg^−1)
Cn1nc(-c2ccncc2)c2scc(-c3ccncc3)c2c1=O [Example 130, 5-methyl-3,7-di(pyridin-4-yl)thieno[2,3-d]pyridazin-4(5H)-one] | ++ (++: <100 μl min^−1 mg^−1) | 0.1 to 0.2 | ++ (++: <100 μl min^−1 mg^−1)

Further lines, results first:

Rat mCl [1] | IC50 (PDE10A) [µM] | Human mCl [2] | SMILES
+ (+: 100-220 μl min^−1 mg^−1) | 0.1 to 0.2 | ++ (++: <100 μl min^−1 mg^−1) | Cn1nc(OCc2ccc3c(c2)OCO3)c2scc(-c3ccncc3)c2c1=O [Example 69, 7-(1,3-benzodioxol-5-ylmethoxy)-5-methyl-3-(pyridin-4-yl)thieno[2,3-d]pyridazin-4(5H)-one]
+ (+: 100-220 μl min^−1 mg^−1) | < 0.1 | + (+: 100-220 μl min^−1 mg^−1) | Cn1nc(OCc2nc3ccccc3n2C)c2scc(-c3ccncc3)c2c1=O [Example 70, 5-methyl-7-[(1-methyl-1H-benzimidazol-2-yl)methoxy]-3-(pyridin-4-yl)thieno[2,3-d]pyridazin-4(5H)-one]
++ (++: <100 μl min^−1 mg^−1) | < 0.1 | + (+: 100-220 μl min^−1 mg^−1) | COc1cc(COc2nn(C)c(=O)c3c(-c4ccncc4)csc23)cc(OC)c1 [Example 75, 7-[(3,5-dimethoxybenzyl)oxy]-5-methyl-3-(pyridin-4-yl)thieno[2,3-d]pyridazin-4(5H)-one]
++ (++: <100 μl min^−1 mg^−1) | < 0.1 | ++ (++: <100 μl min^−1 mg^−1) | Cn1nc(OCc2cccc(OC(F)F)c2)c2scc(-c3ccncc3)c2c1=O [Example 76, 7-{[3-(difluoromethoxy)benzyl]oxy}-5-methyl-3-(pyridin-4-yl)thieno[2,3-d]pyridazin-4(5H)-one]
+ (+: 100-220 μl min^−1 mg^−1) | < 0.1 | ++ (++: <100 μl min^−1 mg^−1) | CC(Oc1nn(C)c(=O)c2c(-c3ccncc3)csc12)c1nc2ccccc2n1C (stereo not drawn) [Example 78, 5-methyl-7-[1-(1-methyl-1H-benzimidazol-2-yl)ethoxy]-3-(pyridin-4-yl)thieno[2,3-d]pyridazin-4(5H)-one]
++ (++: <100 μl min^−1 mg^−1) | 0.1 to 0.2 | + (+: 100-220 μl min^−1 mg^−1) | Cn1nc(Oc2ccccc2C#N)c2scc(-c3ccncc3)c2c1=O.O=C(O)C(F)(F)F [Example 83, 2-{[5-methyl-4-oxo-3-(pyridin-4-yl)-4,5-dihydrothieno[2,3-d]pyridazin-7-yl]oxy}benzonitrile trifluoroacetate]
++ (++: <100 μl min^−1 mg^−1) | 0.1 to 0.2 | ++ (++: <100 μl min^−1 mg^−1) | COc1cccc(Oc2nn(C)c(=O)c3c(-c4ccncc4)csc23)c1 [Example 85, 7-(3-methoxyphenoxy)-5-methyl-3-(pyridin-4-yl)thieno[2,3-d]pyridazin-4(5H)-one]
++ (++: <100 μl min^−1 mg^−1) | < 0.1 | ++ (++: <100 μl min^−1 mg^−1) | COc1cncc(Oc2nn(C)c(=O)c3c(-c4ccncc4)csc23)c1.O=C(O)C(F)(F)F.O=C(O)C(F)(F)F [Example 88, 7-[(5-methoxypyridin-3-yl)oxy]-5-methyl-3-(pyridin-4-yl)thieno[2,3-d]pyridazin-4(5H)-one bis(trifluoroacetate)]
++ (++: <100 μl min^−1 mg^−1) | < 0.1 | ++ (++: <100 μl min^−1 mg^−1) | COc1ccc(Oc2nn(C)c(=O)c3c(-c4ccncc4)csc23)cc1OC [Example 91, 7-(3,4-dimethoxyphenoxy)-5-methyl-3-(pyridin-4-yl)thieno[2,3-d]pyridazin-4(5H)-one]
++ (++: <100 μl min^−1 mg^−1) | < 0.1 | + (+: 100-220 μl min^−1 mg^−1) | COc1cc(OC)cc(Oc2nn(C)c(=O)c3c(-c4ccncc4)csc23)c1 [Example 92, 7-(3,5-dimethoxyphenoxy)-5-methyl-3-(pyridin-4-yl)thieno[2,3-d]pyridazin-4(5H)-one]
++ (++: <100 μl min^−1 mg^−1) | < 0.1 | ++ (++: <100 μl min^−1 mg^−1) | Cn1nc(-c2ccc(C#N)cc2)c2scc(-c3ccncc3)c2c1=O [Example 95, 4-[5-methyl-4-oxo-3-(pyridin-4-yl)-4,5-dihydrothieno[2,3-d]pyridazin-7-yl]benzonitrile]
++ (++: <100 μl min^−1 mg^−1) | < 0.1 | + (+: 100-220 μl min^−1 mg^−1) | COc1ccc(-c2nn(C)c(=O)c3c(-c4ccncc4)csc23)cc1 [Example 96, 7-(4-methoxyphenyl)-5-methyl-3-(pyridin-4-yl)thieno[2,3-d]pyridazin-4(5H)-one]
++ (++: <100 μl min^−1 mg^−1) | < 0.1 | ++ (++: <100 μl min^−1 mg^−1) | Cn1nc(-c2ccc3ncoc3c2)c2scc(-c3ccncc3)c2c1=O [Example 97, 7-(1,3-benzoxazol-6-yl)-5-methyl-3-(pyridin-4-yl)thieno[2,3-d]pyridazin-4(5H)-one]
++ (++: <100 μl min^−1 mg^−1) | < 0.1 | ++ (++: <100 μl min^−1 mg^−1) | COCCn1cc(-c2nn(C)c(=O)c3c(-c4ccncc4)csc23)cn1.O=C(O)C(F)(F)F.O=C(O)C(F)(F)F [Example 99, 7-[1-(2-methoxyethyl)-1H-pyrazol-4-yl]-5-methyl-3-(pyridin-4-yl)thieno[2,3-d]pyridazin-4(5H)-one bis(trifluoroacetate)]
